From publication PMC4589873, “A pain-inducing centipede toxin targets the heat activation machinery of nociceptor TRPV1” (Nature Communications, 2015)
Entries after “also recorded” stand apart in the source; their conditions may differ. Where a SMILES comes first, the peptide text is derived from it. Bridges are numbered along the chain shown (N, C = ends).

What was measured:
[1] = tested on: TRPV1; experiment: Infrared laser-induced heat activation, inside-out patch; format: cell-based; settings: RhTx at 100 nM in pipette, inside-out patch, +80 mV
Experimental: The experimental set-up for rapidly heating cell membrane containing expressed TRPV1 channels was described in a previous report. Electrophysiological recordings were done in the inside-out mode. Toxin was added in the pipette solution. Laser light of 1,443 nm was generated by a laser diode (Fitel) driven by a controller (Thorlabs). The maximal optic output power of the laser was 250 mW. The laser light was transmitted to the voltage-clamped cell membrane through a single-mode optical fibre (125 μm outer diameter, 10 μm light-conducting core diameter), with the patch pipette tip placed in front of the centre of the optical fibre. Light energy was absorbed by water and converted to heat to drive channel activation. To calibrate the laser heating system, the relationship between laser driving power and temperature was tabulated as previously described. Briefly, a glass pipette was filled with a solution distinct from the bath solution and was centred at the end of the optical fibre. The laser driving power was adjusted to produce junction potential values matching those measured in the same solutions at different temperatures.

[2] = tested on: Trpv1−/− mice; experiment: Colonic temperature in TRPV1 knockout mice; format: in vivo, mouse; settings: Trpv1−/− mice n=3, intraperitoneal, 10 μmol kg^−1
Experimental: (§1) In vivo effects of RhTx on WT mice or Trpv1^−/− mice were examined according to protocols described previously. For the paw-licking assay, pain was induced in mice by intraplantar injection of 0.1% formalin, capsaicin (1 μmol per paw) or RhTx (1 μmol per paw). Each of the testing materials was dissolved in 100 μl saline. Control mice received the same volume of saline. Injected mice were placed individually into open polyvinyl cages (20 × 40 × 15 cm). Time spent licking the injected paw was recorded by a digital video camera during the following 40 min. For recording colonic temperature from WT or Trpv1^−/− mice, mice equipped with a copper-constantan thermocouple were individually placed in open polyvinyl cages. A data logger was connected to the thermocouple. Mice were injected intraperitoneally with 100 μl saline containing capsaicin or RhTx. The dose of capsaicin or RhTx was 10 μmol kg^−1 for these experiments. Mice in the control group received the same volume of saline.

[3] = tested on: Trpv1−/− knockout mice; experiment: Paw-licking assay in TRPV1 knockout mice; format: in vivo, mouse; settings: intraplantar, 1 μmol per paw
Experimental: as §1

[4] = biological target: T1, mTRPV1 (Mus musculus, UniProt Q704Y3); experiment: Whole-cell patch-clamp of mTRPV1 expressed in HEK293 cells; format: cell-based
T1 construct: expressed in transfected cells; host or cells: HEK-293T
Source text: TRPV1 and TRPV3 chimeras used in this study were generated by the overlapping extension method[54] and confirmed by DNA sequencing, as described previously. Briefly, to generate V1/3S, the primer pairs (5′-[…]-3′and 5′-[…]-3′) were used. To generate other TRPV1/TRPV3 chimeras, the enzyme cutting sites by MluI were made by the primer pair (5′-[…]-3′ and 5′-[…]-3′) for TRPV1 and the primer pair (5′-[…]-3′ and 5′-[…]-3′) for TRPV3. The enzyme cutting sites by PvuI were made by the primer pair (5′-[…]-3′ and 5′-[…]-3′) for TRPV1 and the primer pair (5′-[…]-3′ and 5′-[…]-3′) for TRPV3. The enzyme cutting sites by BsiWI were made by the primer pair (5′-[…]-3′ and 5′-[…]-3′) for TRPV1 and the primer pair (5′-[…]-3′ and 5′-[…]-3′) for TRPV3. V1/3M were generated by enzyme cut and paste between MluI and PvuI sites, while V1/3L were generated by enzyme cut and paste between MluI and BsiWI sites. V1_S1S2_1, V1_S1S2_3 and V1_S1S2_3 were generated as previously reported. All mTRPV1 point mutations were constructed using the QuickChange II XL site-directed mutagenesis kit following the manufacturer’s instruction. These point mutations were sequenced to confirm that appropriate constructs were made. HEK-293T cells were cultured and transiently transfected using Lipofectamine 2,000 (Invitrogen) as previously described.
(§2) As described in details in a previous report, macroscopic currents (in whole-cell, inside-out or outside-out configuration) as well as single-channel currents were recorded using a HEKA EPC10 amplifier with the PatchMaster software (HEKA). Both pipette solution and bath solution contained 130 mM NaCl, 3 mM HEPES and 0.2 mM EDTA (pH 7.2). All recordings were performed at room temperature unless otherwise stated. A holding potential of 0 mV was used from which a testing pulse to +80 mV was applied. Statistical difference was determined using the Student’s t-test, and indicated by ** when reaching the significance level P<0.001.

[5] = tested on: WT mice; experiment: Colonic temperature after intraperitoneal injection; format: in vivo, mouse; settings: WT mice n=6, intraperitoneal, 10 μmol kg^−1
Experimental: as §1

[6] = Small unilamellar vesicle-binding assay; format: physicochemical
Experimental: After the film rinsed with pentane was lyophilized at −40 °C overnight, the lipid was suspended with a buffer (10 mM HEPES, 50 mM KCl at pH 7.0). POPE (1-palmitoyl-2-oleoyl-phosphatidylethanolamine, 10 mg ml^−1) and POPG (1-palmitoyl-2-oleoylphosphatidyl-Dl-glycerol, 10 mg ml^−1) were mixed in a 3:1 ratio for POPE/POPG vesicle preparation. In total, 150 mM KCl was used instead of 50 mM KCl. The suspended lipid was then sonicated (in ice water) until the solution became transparent. RhTx was mixed with 10 mg ml^−1 (total concentration) small unilamellar vesicle (SUVs). The mixture was incubated for 40 min at room temperature before ultracentrifugation. Toxin–vesicle mixtures were centrifuged at 304,000g for 150 min. The residual toxins in the supernatant were evaluated by RP-HPLC using a linear gradient of acetonitrile containing 0.1% v/v trifluoroacetic acid.

[7] = tested on: hTRPV1; experiment: Whole-cell recording of hTRPV1; format: cell-based, human
Experimental: as §2
Supplementary Figure 3. […] (a) A representative whole-cell recording of hTRPV1 treated with RhTx or capsaicin. (b) Comparison of the dose-response relationships between hTRPV1 and mTRPV1. […]
mTRPV2 (c), mTRPV3 (d) and mTRPV4 (e). (f) Treatment with 10 μM RhTx (red traces) […]
(1 picture or pasted object on this page, not shown here)

[8] = tested on: WT mice; experiment: Paw-licking assay, intraplantar injection; format: in vivo, mouse; settings: 1 μmol per paw in 100 μl saline, 40 min observation
Experimental: as §1
Supplementary Figure 1. Centipede crude venom -induced paw licking. Pain behavior was induced in mice b y intraplan tar injection of centipede crude venom. After crude venom injection, mice were immediately placed individually into open polyvinyl cages (20 × 40 × 15 cm). The time spent licking the injected paw was recorded by digital video camera during 0- 10 minutes […]

[9] = tested on: mTRPV3; experiment: Selectivity recording on mTRPV3; format: cell-based, mouse; settings: RhTx at 10 μM
Experimental: as §2
Supplementary Figure 3. […]
mTRPV2 (c), mTRPV3 (d) and mTRPV4 (e). (f) Treatment with 10 μM RhTx (red traces)

[10] = tested on: dorsal root ganglion (DRG) neurons; experiment: Calcium imaging of DRG neurons (Fluo-4); format: cell-based, mouse; settings: RhTx 10 μM, capsaicin 10 μM
Experimental: Mouse DRG neurons were acutely dissociated and maintained in a short-term primary culture according to procedures as previous descripted. DRG neurons or HEK-293T cells were loaded with Fluo-4 AM in 2 mM Ca^2+ Ringer’s solution (140 mM NaCl, 5 mM KCl, 2 mM MgCl2, 10 mM glucose, 2 mM CaCl2 and 10 mM HEPES, pH 7.4). Fluorescence images of DRG neurons and HEK-293T cells were acquired with an Olympus IX81 microscope with Hamamatsu C4742 charge-coupled device camera controlled by the MetaFluor Software (Molecular Devices). Fluo-4 was excited by a mercury vapour light source with a 500/20-nm excitation filter, while fluorescence emission was detected with a 535/30-nm emission filter. Fluorescence images were required with automated routines written in MetaMorph software (Molecular Devices) and analysed with Igor Pro (Wavemetrics).

T1 sequence (Q704Y3 whole entry): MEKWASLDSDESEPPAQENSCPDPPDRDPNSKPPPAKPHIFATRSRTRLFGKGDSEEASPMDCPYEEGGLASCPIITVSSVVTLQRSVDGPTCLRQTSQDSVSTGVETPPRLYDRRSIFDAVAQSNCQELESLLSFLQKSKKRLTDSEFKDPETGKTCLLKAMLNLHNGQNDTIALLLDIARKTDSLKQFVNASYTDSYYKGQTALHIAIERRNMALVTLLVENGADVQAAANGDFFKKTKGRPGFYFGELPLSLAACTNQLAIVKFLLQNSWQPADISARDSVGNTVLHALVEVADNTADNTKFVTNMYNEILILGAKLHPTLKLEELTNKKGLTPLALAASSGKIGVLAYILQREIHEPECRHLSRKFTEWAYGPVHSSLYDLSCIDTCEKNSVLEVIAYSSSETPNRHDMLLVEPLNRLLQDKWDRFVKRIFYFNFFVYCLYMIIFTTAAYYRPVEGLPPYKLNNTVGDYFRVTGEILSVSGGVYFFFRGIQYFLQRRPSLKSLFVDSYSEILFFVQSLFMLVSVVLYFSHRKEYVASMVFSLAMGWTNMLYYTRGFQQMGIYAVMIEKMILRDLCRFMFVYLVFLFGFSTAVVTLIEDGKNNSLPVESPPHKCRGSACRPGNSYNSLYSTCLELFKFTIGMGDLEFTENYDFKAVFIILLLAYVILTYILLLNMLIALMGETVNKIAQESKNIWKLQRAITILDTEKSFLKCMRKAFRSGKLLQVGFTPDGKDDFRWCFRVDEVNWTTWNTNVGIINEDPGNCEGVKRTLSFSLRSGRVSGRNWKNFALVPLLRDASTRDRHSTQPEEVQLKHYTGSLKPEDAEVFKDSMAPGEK

CC[C@H](C)[C@H](NC(=O)[C@@H]1CSSC[C@@H]2NC(=O)[C@H]([C@@H](C)O)NC(=O)[C@H](C(C)C)NC(=O)CNC(=O)[C@H](CC(N)=O)NC(=O)[C@@H](NC(=O)[C@@H]3CCCN3C(=O)[C@H](CC(N)=O)NC(=O)[C@H](CC(N)=O)NC(=O)[C@@H](N)CC(C)C)CSSC[C@H](NC(=O)[C@H](CCCNC(=N)N)NC(=O)[C@H](Cc3ccc(O)cc3)NC(=O)CNC(=O)[C@H](CO)NC(=O)[C@@H]3CCCN3C2=O)C(=O)N[C@@H](CO)C(=O)N[C@@H]([C@@H](C)CC)C(=O)N[C@@H](C(C)C)C(=O)N[C@@H](CC(=O)O)C(=O)N[C@@H](CCCCN)C(=O)N[C@@H](CCC(N)=O)C(=O)N1)C(=O)N[C@@H](CCCCN)C(=O)N[C@@H](CCCCN)C(=O)N[C@@H](CCC(=O)O)C(=O)O [RhTx] (H-LNNPCNGVTCPSGYRCSIVDKQCIKKE-OH; disulfide 5-16, 10-23; N-terminus and C-terminus assumed)
effect on infrared laser-induced heat activation, 100 nM [1]: substantially potentiated | core (colonic) temperature in knockout mice [2]: absent | pain behaviour (paw licking) in knockout mice [3]: ineffective | activation of mouse TRPV1 [4]: strongly activated | EC50 ([4]; SEM): 522 ± 162 nM | Hill slope ([4]; whole-cell mTRPV1 currents, Hill fit, average±s.e.m., n=10, SEM): 1.17±0.37 | core (colonic) temperature [5]: rapid drop in core temperature | RP-HPLC chromatograph before versus after treatment with POPC ([6]; 0.1 mg RhTx, POPC SUVs 10 mg/ml, 10 mM HEPES, 50 mM KCl, pH 7.0, 40 min room temperature, supernatant RP-HPLC): No difference | RP-HPLC chromatograph before versus after treatment with POPE/POPG ([6]; 0.1 mg RhTx, POPE/POPG 3:1 SUVs 10 mg/ml, 150 mM KCl, 40 min room temperature, supernatant RP-HPLC): No difference | incorporation into the lipid membrane (initial partition experiments) ([6]; SUVs 10 mg/ml, 40 min at room temperature, ultracentrifugation 304,000g 150 min, supernatant by RP-HPLC): does not incorporate into the lipid membrane | activation of human TRPV1 [7]: strongly activated | pain behaviour (paw licking) [8]: elicited similar pain behaviour | response of TRPV3 [9]: no detectable effect; also recorded: no discernable response | intracellular calcium increase in capsaicin-responsive DRG neurons [10]: nearly as strong as capsaicin
